Data set [1] in a line: Cytotoxicity (CC50) in LM cells, MTT assay. The data set is classed as cell-based. The conditions noted are these: mouse, LM cells (mouse fibroblasts); 50% cytotoxic concentration. As to the method: (§1) First, the addition of recombinant TNF to mouse fibroblast LM cells induces cell death, and thus, by using the same, the TNF-neutralization bioassay was constructed. In other words, LM cells were pretreated with TNF (20 ng/ml) and the compounds synthesized in the above examples at various concentrations (5×10^4 cells/well), and a sensitizer actinomycin D ([…]) was added, and cultured in a CO2 incubator for 24 hours, and then the MTT assay was carried out. At this time, 10 μl of MTT (5 mg/ml stock) was added, reacted for 4 hours, and then dissolved in DMSO to measure the absorbance at 570 nm. First, the TNF cell death inhibition/neutralization action of TNF-target expected compounds at single concentration (50 or 10 μM) was measured. Second, IC50 values were determined by treating with the compounds having an excellent effect at different concentrations. The % inhibition of TNF was calculated using the following formula: % inhibition of TNF=(OD value of a group treated with TNF and compound−OD value of TNF treated group/(OD value of TNF untreated group−OD value of TNF treated group)×100.
(§2) IC50 values were statistically analyzed using Prism 6 (GraphPad) (IC50: 50% inhibitory concentration, CC50: 50% cytotoxic concentration).
A general note: Tetrazolium assays rely on reduction of a dye to a coloured formazan, in cell work by metabolically active cells.

The next data set addresses TNF (Homo sapiens, UniProt P01375). The data set can be described thus: TNF-neutralization bioassay: TNF-induced cell death of LM cells (MTT). The data set is classed as cell-based. The conditions noted are these: for inhibition at 50 µM: compound 50 μM, TNF 20 ng/ml, actinomycin D, LM cells, 24 hours; for pIC50: inhibition of TNF-induced LM cell death. As to the method: as §1, §2

The structures appear in SMILES notation. pIC50: −log10 of the molar value.

TNF, sequence (P01375 77-233 limits assumed): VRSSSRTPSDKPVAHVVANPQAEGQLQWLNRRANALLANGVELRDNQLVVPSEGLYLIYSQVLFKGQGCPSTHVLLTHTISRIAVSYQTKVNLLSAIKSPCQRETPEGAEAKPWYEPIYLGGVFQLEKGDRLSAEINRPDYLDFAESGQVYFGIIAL

For orientation: CC50 means the concentration giving 50% cytotoxicity. Read a low CC50 as greater toxicity to the cells. Usually melting point stands for the temperature, or range, at which the solid turns liquid. One may read the inhibition as how much of the control response was suppressed. Broadly, the pIC50 is −log10 of the IC50, conventionally taken in molar units. A lower pIC50 goes with a high IC50. With `O=C(O)c1c(-c2cccc(F)c2)oc2ccccc2c1=O` [Example 16, 2-(3-fluorophenyl)-3-carboxy-(4H)-4-benzopyranone], the melting point fell in the range of 193 to 196 °C. The CC50 at 24 h in data set [1] was more than 50 µM. Also, at TNF, the inhibition at 50 µM stood at 70.2% and the pIC50 was 4.77.

`O=C(O)c1c(-c2cc(F)cc(F)c2)oc2ccccc2c1=O` [Example 17, 2-(3,5-difluorophenyl)-3-carboxy-(4H)-4-benzopyranone] gave a melting point of 208 to 209 °C. The compound further returned a CC50 at 24 h in data set [1] of more than 50 µM. On TNF, this compound gave an inhibition at 50 µM of 71% and a pIC50 of 5.60.

Take `O=C(O)c1c(-c2ccco2)oc2ccc(Cl)cc2c1=O` [Example 23, 2-(2-furanyl)-3-carboxy-6-chloro-(4H)-4-benzopyranone]: the melting point was in the range of 196 to 198 °C. The same compound yielded a CC50 at 24 h in data set [1] of more than 50 µM. At TNF, this compound gave an inhibition at 50 µM of 70.1% and a pIC50 of 5.57.

As to `O=C(O)c1c(-c2ccco2)oc2ccc(Br)cc2c1=O` [Example 24, 2-(2-furanyl)-3-carboxy-6-bromo-(4H)-4-benzopyranone], the melting point was 209 to 211 °C. The compound further displayed a CC50 at 24 h in data set [1] of more than 50 µM. Also, at TNF, the inhibition at 50 µM came out at 76.3% and the pIC50 was 5.60.

`COc1ccc(-c2oc3ccc(Br)cc3c(=O)c2C(=O)O)cc1OC` [Example 40, 2-(3,4-dimethoxyphenyl)-3-carboxy-6-bromo-(4H)-4-benzopyranone] displayed a melting point of 242 to 243 °C. Further, the CC50 at 24 h in data set [1] was more than 50 µM. Besides, on TNF, 50 µM produced 100% inhibition and the pIC50 is 3.91.

The compound `Cc1ccc2c(=O)c(C(=O)O)c(-c3cccc(F)c3)oc2c1` [Example 42, 2-(3-fluorophenyl)-3-carboxy-7-methyl-(4H)-4-benzopyranone] returned a melting point of 178 to 181 °C. At TNF, this compound came in with an inhibition at 50 µM of 23%.

As to `Cc1ccc2oc(-c3cccc(F)c3)c(C(=O)O)c(=O)c2c1` [Example 43, 2-(3-fluorophenyl)-3-carboxy-6-methyl-(4H)-4-benzopyranone], the melting point is 214 to 215 °C. Further, at TNF, the inhibition at 50 µM is 19.4%.

As to `O=C(O)c1c(-c2cccc(F)c2)oc2cc(Cl)ccc2c1=O` [Example 44, 2-(3-fluorophenyl)-3-carboxy-7-chloro-(4H)-4-benzopyranone], the melting point was in the range of 160 to 163 °C. The compound also had a CC50 at 24 h in data set [1] of more than 50 µM. At TNF, this compound gave an inhibition at 50 µM of 93.2% and a pIC50 of 4.34.

For `O=C(O)c1c(-c2cccc(F)c2)oc2ccc(Cl)cc2c1=O` [Example 45, 2-(3-fluorophenyl)-3-carboxy-6-chloro-(4H)-4-benzopyranone], the melting point lay in the range of 216 to 217 °C. The same compound had a CC50 at 24 h in data set [1] of 42 µM. At TNF, this compound had an inhibition at 50 µM of 88.4% and a pIC50 of 4.73.

Consider `Cc1cccc2c(=O)c(C(=O)O)c(-c3cc(F)cc(F)c3)oc12` [Example 47, 2-(3,5-difluorophenyl)-3-carboxy-8-methyl-(4H)-4-benzopyranone], for which the melting point was in the range of 243 to 244 °C. The same compound returned an inhibition at 50 µM on TNF of 21.4%.

In the case of `Cc1ccc2c(=O)c(C(=O)O)c(-c3cc(F)cc(F)c3)oc2c1` [Example 48, 2-(3,5-difluorophenyl)-3-carboxy-7-methyl-(4H)-4-benzopyranone], the melting point fell in the range of 220 to 222 °C. On TNF, testing at 50 µM gave an inhibition of 29%.

Compound `Cc1ccc2oc(-c3cc(F)cc(F)c3)c(C(=O)O)c(=O)c2c1` [Example 49, 2-(3,5-difluorophenyl)-3-carboxy-6-methyl-(4H)-4-benzopyranone] had a melting point of 238 to 240 °C. 50 µM produced 37.7% inhibition on TNF.

With `Cc1cccc2c(=O)c(C(=O)O)c(-c3cccc(F)c3F)oc12` [Example 52, 2-(2,3-difluorophenyl)-3-carboxy-8-methyl-(4H)-4-benzopyranone], the melting point is 167 to 169 °C. The compound further registered an inhibition at 50 µM at TNF of 18.5%.

Take `Cc1ccc2c(=O)c(C(=O)O)c(-c3cccc(F)c3F)oc2c1` [Example 53, 2-(2,3-difluorophenyl)-3-carboxy-7-methyl-(4H)-4-benzopyranone]: the melting point lay within 155 to 156 °C. At TNF, this compound registered an inhibition at 50 µM of 22.8%.

As for `Cc1ccc2oc(-c3cccc(F)c3F)c(C(=O)O)c(=O)c2c1` [Example 54, 2-(2,3-difluorophenyl)-3-carboxy-6-methyl-(4H)-4-benzopyranone], the melting point was in the range of 120 to 122 °C. The compound further gave an inhibition at 50 µM on TNF of 26.5%.

Consider `Cc1cccc2c(=O)c(C(=O)O)c(-c3cc(F)ccc3F)oc12` [Example 58, 2-(2,5-difluorophenyl)-3-carboxy-8-methyl-(4H)-4-benzopyranone], for which the melting point lay in the range of 170 to 172 °C. This compound registered an inhibition at 50 µM on TNF of 33.8%.

`Cc1ccc2c(=O)c(C(=O)O)c(-c3cc(F)ccc3F)oc2c1` [Example 59, 2-(2,5-difluorophenyl)-3-carboxy-7-methyl-(4H)-4-benzopyranone] had a melting point of 156 to 158 °C. In addition, at 50 µM the inhibition at TNF was 32.3%.

The compound `Cc1ccc2oc(-c3cc(F)ccc3F)c(C(=O)O)c(=O)c2c1` [Example 60, 2-(2,5-difluorophenyl)-3-carboxy-6-methyl-(4H)-4-benzopyranone] had a melting point not below 120 °C. In addition, 50 µM produced 28.1% inhibition against TNF.

For the compound `Cc1cccc2c(=O)c(C(=O)O)c(-c3ccc(F)c(F)c3)oc12` [Example 64, 2-(3,4-difluorophenyl)-3-carboxy-8-methyl-(4H)-4-benzopyranone], the melting point fell in the range of 203 to 204 °C. The same compound came in with an inhibition at 50 µM on TNF of 47.2%.

`Cc1ccc2c(=O)c(C(=O)O)c(-c3ccc(F)c(F)c3)oc2c1` [Example 65, 2-(3,4-difluorophenyl)-3-carboxy-7-methyl-(4H)-4-benzopyranone] had a melting point of 202 to 204 °C. Further, the inhibition at 50 µM at TNF came out at 25.1%.

`Cc1ccc2oc(-c3ccc(F)c(F)c3)c(C(=O)O)c(=O)c2c1` [Example 66, 2-(3,4-difluorophenyl)-3-carboxy-6-methyl-(4H)-4-benzopyranone] gave a melting point of 222 to 223 °C. For the same compound, on TNF, 50 µM produced 37% inhibition.

Take `Cc1cccc2c(=O)c(C(=O)O)c(-c3ccc(Cl)cc3)oc12` [Example 68, 2-(4-chlorophenyl)-3-carboxy-8-methyl-(4H)-4-benzopyranone]: the melting point lay within 217 to 219 °C. At 50 µM the inhibition at TNF was 15.8%.

Consider `Cc1ccc2c(=O)c(C(=O)O)c(-c3ccc(Cl)cc3)oc2c1` [Example 69, 2-(4-chlorophenyl)-3-carboxy-7-methyl-(4H)-4-benzopyranone], for which the melting point lay in the range of 220 to 222 °C. This compound also returned an inhibition at 50 µM at TNF of 14.6%.

`Cc1ccc2oc(-c3ccc(Cl)cc3)c(C(=O)O)c(=O)c2c1` [Example 70, 2-(4-chlorophenyl)-3-carboxy-6-methyl-(4H)-4-benzopyranone] registered a melting point of 212 to 227 °C. On TNF, this compound returned an inhibition at 50 µM of 28.9%.

In turn, `O=C(O)c1c(-c2ccc(Cl)cc2)oc2ccccc2c1=O` [Example 73, 2-(4-chlorophenyl)-3-carboxy-(4H)-4-benzopyranone] showed a melting point of 212 to 213 °C. Moreover, on TNF, the inhibition at 50 µM was 42%.

The record behind these values is patent publication US11504349B2, “Composition for preventing or treating TNF-related diseases, containing novel derivative as active ingredient, and method for inhibiting TNF activity by using same” (ILAB, priority 2017, dated 2022).
